In ChEMBL document CHEMBL1145055, “A novel class of nonpeptidic biaryl inhibitors of human cathepsin K” (J Med Chem, 2003):

Key:
Cathepsin S = Cathepsin S (Homo sapiens, UniProt P25774); assay: In vitro inhibitory activity against human cathepsin S, using 2 uM of Z -Leu-Arg-AMC as substrate
Cathepsin K [1] = biological target: T1, Cathepsin K (Homo sapiens, UniProt P43235); assay: In vitro inhibitory activity against human cathepsin K, using 2 uM of Z -Leu-Arg-AMC as substrate
T1 sequence (P43235 whole entry): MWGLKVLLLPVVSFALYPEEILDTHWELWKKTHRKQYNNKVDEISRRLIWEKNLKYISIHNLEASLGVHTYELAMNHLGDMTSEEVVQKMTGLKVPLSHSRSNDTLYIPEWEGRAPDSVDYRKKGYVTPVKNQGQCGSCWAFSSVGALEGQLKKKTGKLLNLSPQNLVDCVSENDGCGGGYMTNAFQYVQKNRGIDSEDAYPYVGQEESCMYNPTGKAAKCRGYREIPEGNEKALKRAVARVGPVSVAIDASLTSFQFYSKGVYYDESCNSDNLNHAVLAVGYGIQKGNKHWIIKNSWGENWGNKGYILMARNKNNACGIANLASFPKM

Procathepsin L = Procathepsin L (Homo sapiens, UniProt P07711); assay: In vitro inhibitory activity against human cathepsin L, using 2 uM of Z -Leu-Arg-AMC as substrate
Cathepsin B = Cathepsin B (Homo sapiens, UniProt P07858); assay: In vitro inhibitory activity against human cathepsin B, using 2 uM of Z -Leu-Arg-AMC as substrate
Bos taurus = species on record: Bos taurus; assay: cells
Description: In vitro Bone resorption; measuring degradation of bovine bone by isolated osteoclasts

Cathepsin K [2] = biological target: T1, Cathepsin K; assay: In vitro inhibitory activity against Human Cathepsin K using 2 uM of Z -Leu-Arg-AMC as substrate
[3] = biological target: T2, Cathepsin K (Homo sapiens) (UniProt P43235); assay: Pre steady state kinetic parameter K off was determined
T2 sequence (whole entry): T1 sequence (P43235 whole entry)

Procathepsin L, sequence (P07711 whole entry): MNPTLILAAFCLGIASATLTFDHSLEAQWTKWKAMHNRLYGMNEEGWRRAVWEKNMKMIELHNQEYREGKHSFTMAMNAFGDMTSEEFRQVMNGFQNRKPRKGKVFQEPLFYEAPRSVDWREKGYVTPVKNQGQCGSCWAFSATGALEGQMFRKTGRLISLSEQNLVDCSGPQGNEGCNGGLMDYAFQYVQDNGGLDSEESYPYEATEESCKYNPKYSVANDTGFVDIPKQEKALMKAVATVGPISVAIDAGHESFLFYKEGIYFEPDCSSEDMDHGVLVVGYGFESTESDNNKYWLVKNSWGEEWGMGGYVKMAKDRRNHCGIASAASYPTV
Cathepsin S, sequence (P25774 whole entry): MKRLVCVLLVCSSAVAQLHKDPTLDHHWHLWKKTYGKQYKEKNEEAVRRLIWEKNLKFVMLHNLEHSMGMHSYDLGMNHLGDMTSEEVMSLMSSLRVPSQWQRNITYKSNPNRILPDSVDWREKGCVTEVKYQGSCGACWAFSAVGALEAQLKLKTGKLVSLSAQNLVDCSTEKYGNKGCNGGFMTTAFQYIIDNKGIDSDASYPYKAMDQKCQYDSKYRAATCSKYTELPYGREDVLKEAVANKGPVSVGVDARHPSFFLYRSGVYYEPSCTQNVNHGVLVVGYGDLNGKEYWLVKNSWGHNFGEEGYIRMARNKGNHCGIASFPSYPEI

Row | IC50 (Cathepsin S) | IC50 (Cathepsin K [1]) | IC50 (Procathepsin L) | IC50 (Cathepsin B) | IC50 (Bos taurus) | Ki (Cathepsin K [2]) | k off [3] | SMILES
1 | > 10000 nM | 1400 nM | 3910 nM | > 10000 nM | – | – | – | CN1CCN(c2ccc(-c3cccc(C(Cc4ccccc4)C(=O)NCC#N)c3)cc2)CC1 (centres undefined)
2 | 2010 nM | 3 nM | 3720 nM | 3950 nM | 95 nM | – | – | CC(C)C[C@@H](C(=O)NCC#N)c1cccc(-c2ccc(N3CCNCC3)cc2)c1
3 | – | 8 nM | – | – | – | – | – | CC(C)C[C@@H](C(=O)NCC#N)c1cccc(-c2ccc3[nH]ccc3c2)c1
4 | 1750 nM | 150 nM | 5780 nM | > 10000 nM | – | – | – | CC(C)CC(C(=O)N(CC#N)OC(=O)C(F)(F)F)c1cccc(-c2ccncc2)c1 (centres undefined)
5 | 1580 nM | 56 nM | 498 nM | > 10000 nM | 3560 nM | – | – | CC(C)CC(C(=O)NCC#N)c1cccc(-c2ccccc2)c1 (centres undefined)
6 | > 10000 nM | 1460 nM | > 10000 nM | > 10000 nM | – | – | – | CC(C)CC(C(=O)NCC#N)c1csc(-c2ccccc2)n1 (centres undefined)
7 | 8340 nM | 20 nM | 1670 nM | 379 nM | 340 nM | – | – | CC(C)CC(C(=O)NCC#N)c1cccc(-c2ccc(N3CCN(C(C)(C)C)CC3)cc2)c1 (centres undefined)
8 | > 10000 nM | 51 nM | > 10000 nM | 5790 nM | – | – | – | CC[C@H](C)CC(C(=O)NCC#N)c1cccc(-c2ccc(N3CCN(C)CC3)cc2)c1 (some centres undefined)
9 | 3370 nM | 614 nM | 919 nM | > 10000 nM | 2810 nM | – | – | CC(C)CC(C(=O)NCC#N)c1cccc(-c2ccc(C3CNCCO3)cc2)c1 (centres undefined)
10 | – | 3 nM | – | – | – | 10 nM | 0.0014 s⁻¹ | CC(C)CC(C(=O)NC1(C#N)CC1)c1cccc(-c2ccc(N3CCNCC3)cc2)c1 (centres undefined)
11 | > 10000 nM | 216 nM | > 10000 nM | > 10000 nM | 4870 nM | – | – | CC(C)CC(C(=O)NCC#N)c1cccc(-c2ccc(C3CNCCN3)cc2)c1 (stereo in doubt; 43)
12 | 6600 nM | 65 nM | > 10000 nM | 3430 nM | – | – | – | CN1CCN(c2ccc(-c3cccc(C(CC4CC4)C(=O)NCC#N)c3)cc2)CC1 (centres undefined)
13 | > 10000 nM | > 10000 nM | > 10000 nM | > 10000 nM | – | – | – | CN1CCN(c2ccc(-c3cccc(CC(=O)NCC#N)c3)cc2)CC1
14 | 1240 nM | 9 nM | 4800 nM | 2410 nM | 162 nM | – | – | CC(C)CC(C(=O)NCC#N)c1cccc(-c2ccc(N3CCNCC3)cc2)c1 (racemic)
15 | 8040 nM | 803 nM | 5950 nM | > 10000 nM | – | – | – | CC(C)CC(C(=O)NCC#N)c1cccc(-c2cccnc2)c1 (centres undefined)
16 | 1370 nM | 1020 nM | > 10000 nM | > 10000 nM | – | – | – | CC(C)CC(C(=O)NCC#N)c1cccc(-c2ccc(C(N)=O)cc2)c1 (centres undefined)
17 | > 10000 nM | 1040 nM | > 10000 nM | > 10000 nM | – | – | – | CC(C)CC(C(=O)NCC#N)c1cccc(-c2cncnc2)c1 (centres undefined)
18 | 1690 nM | 8 nM | 4640 nM | 3840 nM | 78 nM | – | – | CC(C)CC(C(=O)NCC#N)c1cccc(-c2ccc(N3CCN(C)CC3)cc2)c1 (racemic)

Row | IC50 (Cathepsin S) | IC50 (Cathepsin K [1]) | IC50 (Procathepsin L) | IC50 (Cathepsin B) | IC50 (Bos taurus) | Ki (Cathepsin K [2]) | k off [3] | SMILES
19 | 3340 nM | 790 nM | > 10000 nM | > 10000 nM | – | – | – | CC(C)CC(C(=O)NCC#N)c1ccc(-c2ccccc2)cc1 (centres undefined)
20 | > 10000 nM | 488 nM | 5580 nM | > 10000 nM | – | – | – | CC(C)CC(C(=O)NCC#N)c1cccc(-c2ccccn2)c1 (centres undefined)
21 | > 10000 nM | 142 nM | 825 nM | > 10000 nM | 1400 nM | – | – | CC(C)CC(C(=O)NCC#N)c1cncc(-c2ccccc2)c1 (centres undefined)
22 | 1260 nM | 291 nM | – | > 10000 nM | 2780 nM | – | – | CC(C)CC(C(=O)NCC#N)c1cccc(-c2ccc3cc[nH]c3c2)c1 (centres undefined)
23 | 521 nM | 58 nM | 338 nM | 1250 nM | – | – | – | CC(C)CC(C(=O)NCC#N)c1cccc(-c2ccc(C3CNCCN3)cc2)c1 (stereo in doubt; 44)
24 | 1420 nM | 18 nM | 2750 nM | 1080 nM | 489 nM | – | – | CC(C)CC(C(=O)NCC#N)c1cccc(-c2ccc(C3CCNCC3)cc2)c1 (centres undefined)
25 | – | 79 nM | – | – | – | – | – | CC(C)C[C@H](C(=O)NCC#N)c1cccc(-c2ccc3[nH]ccc3c2)c1
26 | 922 nM | 52 nM | > 10000 nM | > 10000 nM | 249 nM | – | – | CC(C)CC(C(=O)NCC#N)c1cccc(-c2ccc3[nH]ccc3c2)c1 (racemic)
27 | 6620 nM | 1230 nM | > 10000 nM | > 10000 nM | – | – | – | CC(C)CC(C(=O)NCC#N)c1cccc(-c2ccc(S(C)(=O)=O)cc2)c1 (centres undefined)
28 | 3930 nM | 6 nM | 6270 nM | 2600 nM | 96 nM | – | – | CC(C)C[C@@H](C(=O)NCC#N)c1cccc(-c2ccc(N3CCN(C)CC3)cc2)c1
29 | 41 nM | 51 nM | – | 1900 nM | – | – | – | CC(C)CC(NC(=O)c1ccccc1)C(=O)NCC#N (centres undefined)
30 | > 10000 nM | 87 nM | > 10000 nM | > 10000 nM | – | – | – | CCCC(C(=O)NCC#N)c1cccc(-c2ccc(N3CCN(C)CC3)cc2)c1 (centres undefined)
31 | 1360 nM | 97 nM | 8390 nM | 3330 nM | 1240 nM | – | – | CC(C)CC(C(=O)NCC#N)c1cccc(-c2ccc(-c3ccncc3)cc2)c1 (centres undefined)
32 | 2310 nM | 62 nM | > 10000 nM | 8050 nM | – | – | – | CN1CCN(c2ccc(-c3cccc(C(CC4CCC4)C(=O)NCC#N)c3)cc2)CC1 (centres undefined)
33 | 9420 nM | 638 nM | 1590 nM | 1740 nM | – | – | – | CC(C)CC(C(=O)NCC#N)c1cccc(-c2ccc(N3CCOCC3)cc2)c1 (centres undefined)
34 | 609 nM | 12 nM | 140 nM | 3340 nM | – | – | – | CC(C)CC(C(=O)NCC#N)c1cccc(-c2ccc(N3CCN(CCO)CC3)cc2)c1 (centres undefined)
35 | 2360 nM | 10 nM | 2160 nM | 550 nM | 121 nM | – | – | CC(=O)CN1CCN(c2ccc(-c3cccc(C(CC(C)C)C(=O)NCC#N)c3)cc2)CC1 (centres undefined)

Row | SMILES | IC50 (Cathepsin S) | IC50 (Cathepsin K [1]) | IC50 (Procathepsin L) | IC50 (Cathepsin B) | IC50 (Bos taurus) | Ki (Cathepsin K [2]) | k off [3]
36 | CC(C)CC(C(=O)NCC#N)c1cccc(-c2ccc(N3CCN(C(=O)OC(C)(C)C)CC3)cc2)c1 (centres undefined) | 1300 nM | 922 nM | > 10000 nM | > 10000 nM | – | – | –
37 | CC(C)CC(C(=O)NCC#N)c1cccc(-c2ccc(N3CCN(CC(C)(C)N)CC3)cc2)c1 (centres undefined) | 1430 nM | 16 nM | > 10000 nM | > 10000 nM | 552 nM | – | –
38 | CC(C)CC(C(=O)NCC#N)c1cccc(-c2ccc(N3CCN(CC(C)(C)O)CC3)cc2)c1 (centres undefined) | > 10000 nM | 6 nM | 9550 nM | 6370 nM | 142 nM | – | –
39 | CC(C)CC(C(=O)NCC#N)c1cccc(-c2ccc(C34CCN(CC3)CC4)cc2)c1 (centres undefined) | 1990 nM | 37 nM | 2240 nM | 2230 nM | 198 nM | – | –
40 | CC(C)CC(C(=O)NCC#N)c1cccc(-c2ccc(C3=CCNCC3)cc2)c1 (centres undefined) | 652 nM | 57 nM | 1680 nM | 554 nM | 267 nM | – | –
